Earlier results as cited in PMC11876601 (Molecular Systems Biology, 2025).

System: PRKAB2
Parameters: method as in Reinecke et al. (2023)
Conditions: PRKAB2, 5 cell line mix lysate, Kinobeads ε, ref Reinecke et al. (2023), cited from earlier work

In the case of `COc1cc(N2CCC(N3CCN(C)CC3)CC2)ccc1Nc1ncc(Cl)c(Nc2ccccc2P(C)(C)=O)n1` [Brigatinib], the EC50 is listed as 546 nM, the pKDapp is listed as 6.48 and the Kd (read-out: KDapp) is listed as 328 nM.
